Results from publication PMC10163259, “KK-LC-1 as a therapeutic target to eliminate ALDH^+ stem cells in triple negative breast cancer” (Nature Communications, 2023).

Molecular target: T1, KK-LC-1 (Homo sapiens, UniProt Q5H943)
T1 construct: gene CT83; purified KK-LC-1 protein, biotinylated, immobilised on Super Streptavidin sensors
T1 sequence (Q5H943 1-113): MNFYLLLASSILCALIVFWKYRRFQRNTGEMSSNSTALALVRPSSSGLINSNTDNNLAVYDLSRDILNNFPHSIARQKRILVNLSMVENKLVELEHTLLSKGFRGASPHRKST
Test: biolayer interferometry (Octet K2)
Type: binding
Settings: 30 °C; PBS with 0.1% BSA, 0.01% Tween-20, 1% DMSO; biotinylated KK-LC-1 immobilised; from kon/koff

`Cc1ccc(CNC(=O)c2nnc(CN(C)C3CCc4ccccc43)s2)cc1` (stereo not shown) [Z8, Z839878730] showed a Kd of 4.3 µM.
